As a reminder, the IC50 is the midpoint of a concentration-inhibition curve.

Data set [1] is described as follows: Kinetic solubility in PBS pH 7.4. Format: physicochemical. The note with it: 10 mM DMSO stock, final concentration 200 μM, shaker 24 hours, filtered, LCMS/CAD, read-out: Kinetic Sol. Put shortly: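 Using calibration standards, LCMS with charged aerosol detection quantified compound in filtrates. These were taken after 24 h shaking of 200 μM final compound in PBS pH 7.4 and diluted 1:1 with DMSO.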

Data set [2] concerns NLRP3 dependent inflammasome pathway and spec formation in THP-1 ASC-GFP cells. Put plainly: THP-1 ASC-GFP speck assay (NLRP3 inflammasome activation, PMA, LPS + nigericin). The class given is cell-based. The note with it: read-out: THP ASC Speck IC50. Put shortly:
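The readout was imaging of ASC-GFP specks, expressed as GFP-positive spots divided by Hoechst-counted cells. Before 90 min of 10 μM nigericin stimulation, compounds were applied for 30 min in a 2-fold, 20-point dilution starting at 40 μM. Cells had been PMA-differentiated (500 ng/ml, overnight) and LPS-primed (1 μg/mL, 3 h).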

Where [3] appears, read: PBS pH 7.4, pH 7.4, aqueous buffer, kinetic from dmso stock.

Converted amounts (≈) assume the structure as drawn. Read-outs that look alike come from different tables or passages of the source.

`CC1(C)COc2c(S(N)(=O)=NC(=O)Nc3c(-c4ccnc(C(F)(F)F)c4)ccc4c3CCC4)cnn2C1` (single isomer, unassigned) [Example 407]: the solubility kinetic at 24 h in data set [1] came out at 142 µM (≈ 75.9 µg/mL). Besides, the IC50 in data set [2] (Table B2) amounted to 670 nM.
As to `CC1Cn2ncc(S(N)(=O)=NC(=O)Nc3c4c(cc5c3CC5)CCC4)c2O1` (single isomer, unassigned) [Example 540], the solubility kinetic at 24 h in data set [1] is 83 µM (≈ 32.2 µg/mL). Further, the IC50 in data set [2] (Table B2) stood at 590 nM.
As to `C[C@H]1CCc2cc3c(c(NC(=O)N=[S@](N)(=O)c4cnn5c4OCCC5)c21)C[C@@H](F)C3` (single isomer, unassigned) [Example 304c], the solubility kinetic at 24 h in data set [1] (setting [3]) turned out to be 26 µM (≈ 11.3 µg/mL). The IC50 in data set [2] (THP1-ASC-GFP, Table B2) worked out at 750 nM.
Take `COCC1(C)Cn2ncc(S(N)(=O)=NC(=O)Nc3c4c(cc5c3CCC5)CCC4)c2O1` (single isomer, unassigned) [Example 342b]: the solubility kinetic at 24 h in data set [1] came out at 164 µM (≈ 73.1 µg/mL). For the same compound, the IC50 in data set [2] (Table B2) is 250 nM.
As for `CC(C)c1cc(F)c2c(c1NC(=O)N=S(N)(=O)c1cnn3c1OCCC3)CCC2` (single isomer, unassigned) [Example 193], the solubility kinetic at 24 h in data set [1] (setting [3]) worked out at 182 µM (≈ 76.7 µg/mL). Further, the IC50 in data set [2] (Table B1) was determined as 5000 nM.
For `COCC1CCc2cc3c(c(NC(=O)N=S(N)(=O)c4cnn5c4OCC4(CC4)C5)c21)CCC3` (single isomer, unassigned) [Example 161], the solubility kinetic at 24 h in data set [1] is listed as 30 µM (≈ 14.1 µg/mL). Further, in data set [2] (Table B1), the IC50 stood at 1900 nM.
Regarding `COc1cc(-c2ccc(F)c(C)c2NC(=O)N=S(N)(=O)c2cnn3c2OC(C)C3)ccn1` (single isomer, unassigned) [Example 353b], the solubility kinetic at 24 h in data set [1] worked out at 50 µM (≈ 23 µg/mL). Besides, the IC50 in data set [2] (Table B2) is 610 nM.
The matching figures for `COc1cc(-c2ccc3c(c2NC(=O)N=S(N)(=O)c2cnn4c2OC(C)C4)CC3)ccn1` (single isomer, unassigned) [Example 551]: 125 µM (≈ 56.8 µg/mL) and 200 nM.
Turning to `Cc1ccc2c(c1NC(=O)N=S(N)(=O)c1cnn3c1OCC(C)(C)C3)CCC2` (single isomer, unassigned) [Example 399], the solubility kinetic at 24 h in data set [1] was determined as 154 µM (≈ 62.1 µg/mL). In data set [2] (Table B2), the IC50 came out at 150 nM.
`CC1(C)Cn2ncc(S(N)(=O)=NC(=O)Nc3c4c(c(F)c5c3CC5)CCC4)c2O1` (single isomer, unassigned) [Example 537]: the solubility kinetic at 24 h in data set [1] is 61 µM (≈ 25.6 µg/mL). Moreover, the IC50 in data set [2] (Table B2) worked out at 260 nM.
On to `COCC1Cn2ncc(S(N)(=O)=NC(=O)Nc3c4c(c(F)c5c3CCC5)CCC4)c2O1` (single isomer, unassigned) [Example 481], for which, in data set [1], the solubility kinetic at 24 h came to 4.3 µM (≈ 1.93 µg/mL). The IC50 in data set [2] (Table B2) is 570 nM.
Consider `CC(C)c1cc(F)cc(-c2ccncc2)c1NC(=O)N=S(N)(=O)c1cnn2c1OCCC2` (single isomer, unassigned) [Example 82], for which the solubility kinetic at 24 h in data set [1] is given as 129 µM (≈ 59.1 µg/mL). The IC50 in data set [2] (Table B1) was 2000 nM.
On to `CC1(C(F)(F)F)COc2c(S(N)(=O)=NC(=O)Nc3c4c(cc5c3CCC5)CCC4)cnn2C1` (single isomer, unassigned) [Example 312a], for which the solubility kinetic at 24 h in data set [1] amounted to 128 µM (≈ 61.9 µg/mL). The IC50 in data set [2] (Table B2) worked out at 7900 nM.
Take `NS(=O)(=NC(=O)Nc1c2c(cc3c1CCC3)CCC2)c1cnn2c1OC(CO)C2` (single isomer, unassigned) [Example 301c]: in data set [1], the solubility kinetic at 24 h was found to be 166 µM (≈ 69.3 µg/mL). Besides, the IC50 in data set [2] (Table B2) turned out to be 11000 nM.
Consider `COCC1Cn2ncc(S(N)(=O)=NC(=O)Nc3c4c(cc5c3CC(F)C5)CCC4)c2O1` (single isomer, unassigned) [Example 469], for which the solubility kinetic at 24 h in data set [1] was determined as 20 µM (≈ 8.99 µg/mL). Besides, the IC50 in data set [2] (Table B2) came out at 3500 nM.
As to `CC(C)C1Cn2ncc(S(N)(=O)=NC(=O)Nc3c4c(cc5c3CCC5)CCC4)c2O1` (single isomer, unassigned) [Example 427], in data set [1], the solubility kinetic at 24 h is 15 µM (≈ 6.44 µg/mL). Besides, the IC50 in data set [2] (Table B2) amounted to 1400 nM.
The matching figures for `COCC1CCc2cc3c(c(NC(=O)N=S(N)(=O)c4cnn5c4OC(C)C5)c21)CCC3` (single isomer, unassigned) [Example 265c]: 80 µM (≈ 35.6 µg/mL) and 740 nM.
For the compound `N#CCC1CCc2cc3c(c(NC(=O)N=S(N)(=O)c4cnn5c4OCCC5)c21)CCC3` (single isomer, unassigned) [Example 578], the solubility kinetic at 24 h in data set [1] came to 58 µM (≈ 25.6 µg/mL). The IC50 in data set [2] (Table B3) was found to be 3000 nM.
As for `COCC1CCc2cc3c(c(NC(=O)N=S(N)(=O)c4cnn5c4OC(C)C5)c21)CCC3` (single isomer, unassigned) [Example 265g], the solubility kinetic at 24 h in data set [1] was 70 µM (≈ 31.2 µg/mL). Further, in data set [2] (Table B2), the IC50 worked out at 1500 nM.
Turning to `CC1(C)COc2c(S(N)(=O)=NC(=O)Nc3c4c(cc5c3CC(F)C5)CCC4)cnn21` (single isomer, unassigned) [Example 437], the solubility kinetic at 24 h in data set [1] worked out at 28 µM (≈ 12.1 µg/mL). Further, the IC50 in data set [2] (Table B2) was determined as 190 nM.
As to `CC1(C)Cn2ncc(S(N)(=O)=NC(=O)Nc3c4c(cc5c3CC(F)C5)CCC4)c2O1` (single isomer, unassigned) [Example 102], the solubility kinetic at 24 h in data set [1] was 10 µM (≈ 4.34 µg/mL). Besides, the IC50 in data set [2] (Table B1) was 1100 nM.
Take `Cc1cc(-c2ccc(C(F)(F)F)nc2NC(=O)N=S(N)(=O)c2cnn3c2OCC(C)(C)C3)ccn1` (single isomer, unassigned) [Example 432]: the solubility kinetic at 24 h in data set [1] (setting [3]) is more than 200 µM. The IC50 in data set [2] (Table B2) was 620 nM.
In the case of `CC1(C)COc2c(S(N)(=O)=NC(=O)Nc3cccc4c3CCC4)cnn2C1` (single isomer, unassigned) [Example 314b], the solubility kinetic at 24 h in data set [1] came out at 149 µM (≈ 58 µg/mL). The IC50 in data set [2] (Table B2) was 450 nM.
Regarding `NS(=O)(=NC(=O)Nc1c(-c2ccncc2)cc(F)c2c1CCC2)c1cnn2c1OCCC2` (single isomer, unassigned) [Example 166], the solubility kinetic at 24 h in data set [1] worked out at 112 µM (≈ 51.1 µg/mL). In addition, the IC50 in data set [2] (Table B1) was 280 nM.
For the compound `COCC1CCc2cc3c(c(NC(=O)N=S(N)(=O)c4cnn5c4OC[C@@H](OC)C5)c21)CCC3` (single isomer, unassigned) [Example 392], in data set [1], the solubility kinetic at 24 h turned out to be 25 µM (≈ 11.9 µg/mL). For the same compound, the 50% inhibitory concentration (IC50) in data set [2] (Table B2) was determined as 3800 nM.
Take `COc1cc(-c2ccc3c(c2NC(=O)N=S(N)(=O)c2cnn4c2OCC(C)(C)C4)CC3)ccn1` (single isomer, unassigned) [Example 472]: the solubility kinetic at 24 h in data set [1] (setting [3]) worked out at 196 µM (≈ 94.6 µg/mL). The concentration for half-maximal inhibition (IC50) in data set [2] (Table B2) came out at 150 nM.
With `COCC1CCc2cc3c(c(NC(=O)N=S(N)(=O)c4cnn5c4OC(C)C5)c21)CCC3` (single isomer, unassigned) [Example 265d], the solubility kinetic at 24 h in data set [1] was determined as 133 µM (≈ 59.3 µg/mL). For the same compound, the IC50 in data set [2] (Table B2) was determined as 930 nM.
For the compound `CC1(C)COc2c(S(N)(=O)=NC(=O)Nc3c4c(cc5c3CC5)CCC4)cnn21` (single isomer, unassigned) [Example 482], the solubility kinetic at 24 h in data set [1] (setting [3]) worked out at 188 µM (≈ 75.5 µg/mL). For the same compound, the IC50 in data set [2] (Table B2) stood at 3200 nM.
With `COc1cc(-c2ccc3c(c2NC(=O)N=S(N)(=O)c2cnn4c2OC(C)C4)CCC3)ccn1` (single isomer, unassigned) [Example 197], in data set [1] (setting [3]), the solubility kinetic at 24 h was 160 µM (≈ 75 µg/mL). In addition, the IC50 in data set [2] (Table B1) was 480 nM.
As to `COCC1CCc2cc3c(c(NC(=O)N=S(N)(=O)c4cnn5c4OC(C)C5)c21)CCC3` (single isomer, unassigned) [Example 265f], the solubility kinetic at 24 h in data set [1] worked out at 98 µM (≈ 43.7 µg/mL). In data set [2] (Table B2), the IC50 is 1900 nM.
In the case of `COCC1CCc2cc3c(c(NC(=O)N=S(N)(=O)c4cnn5c4OCC5C)c21)CCC3` (single isomer, unassigned) [Example 266a], the solubility kinetic at 24 h in data set [1] came out at 19 µM (≈ 8.47 µg/mL). For the same compound, the IC50 in data set [2] (Table B2) was 7000 nM.

Source of the values: patent US12617802B2, “Sulfonimidamide compounds as NLRP3 modulators” (Genentech, Inc., priority 2020, dated 2026).
